Laboratory results from PubChem BioAssay (NCI).
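All cell lines were grown in 96-well plates and treated with compound for 48 hours. At the TGI there is no net growth.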

Key:
Experiment in all cases: NCI tumour cell line growth inhibition, 48 h
[1] = tested on: HT29 colon
[2] = tested on: A549 NSCLC
[3] = tested on: MCF7 breast
[4] = tested on: NCI-H522 lung
[5] = tested on: COLO 205 colon
[6] = tested on: SF-295 CNS
[7] = tested on: TK-10 renal
[8] = tested on: NCI-H460 lung
[9] = tested on: BT-549 breast
[10] = tested on: DU-145 prostate
[11] = tested on: SNB-75 CNS
[12] = tested on: SK-MEL-5 melanoma
[13] = tested on: HCT-116 colon
[14] = tested on: HCT-15 colon
[15] = tested on: SN12C renal
[16] = tested on: MOLT-4 leukemia
[17] = tested on: KM12 colon
[18] = tested on: SK-OV-3 ovarian
[19] = tested on: HCC-2998 colon
[20] = tested on: SR leukemia
[21] = tested on: SK-MEL-2 melanoma
[22] = tested on: HS 578T breast
[23] = tested on: K-562 leukemia
[24] = tested on: UACC-257 melanoma
[25] = tested on: SF-539 CNS
[26] = tested on: PC-3 prostate
[27] = tested on: NCI/ADR-RES ovarian
[28] = tested on: UACC-62 melanoma
[29] = tested on: HL-60(TB) leukemia
[30] = tested on: EKVX NSCLC
[31] = tested on: SK-MEL-28 melanoma
[32] = tested on: MDA-MB-435
[33] = tested on: SNB-19 CNS
[34] = tested on: MALME-3M melanoma
[35] = tested on: SF-268 CNS
[36] = tested on: OVCAR-8 ovarian
[37] = tested on: 786-0 renal
[38] = tested on: OVCAR-5 ovarian
[39] = tested on: NCI-H23 lung
[40] = tested on: U251 CNS
[41] = tested on: OVCAR-4 ovarian
[42] = tested on: UO-31 renal
[43] = tested on: M14 melanoma
[44] = tested on: MDA-N
[45] = tested on: NCI-H226 lung
[46] = tested on: RXF 393 renal
[47] = tested on: CCRF-CEM leukemia
[48] = tested on: MDA-MB-231 breast
[49] = tested on: SW-620 colon
[50] = tested on: LOX IMVI melanoma
[51] = tested on: T-47D breast
[52] = tested on: OVCAR-3 ovarian
[53] = tested on: HOP-92 NSCLC
[54] = tested on: ACHN renal
[55] = tested on: HOP-62 NSCLC
[56] = tested on: RPMI-8226 leukemia
[57] = tested on: A498 renal
[58] = tested on: IGROV1 ovarian
[59] = tested on: CAKI-1 renal

O=C1CS(=O)(=O)C(c2cccc(Oc3ccccc3)c2)N1C1CC1 (configuration not stated)
TGI [1]: > 100 µM | TGI [2]: > 100 µM | TGI [3]: 58 µM | TGI [4]: > 100 µM | TGI [5]: 72.9 µM | TGI [6]: > 100 µM | TGI [7]: > 100 µM | TGI [8]: > 100 µM | TGI [9]: > 100 µM | TGI [10]: > 100 µM | TGI [11]: 80.7 µM | TGI [12]: 39.3 µM | TGI [13]: > 100 µM | TGI [14]: > 100 µM | TGI [15]: > 100 µM | TGI [16]: > 100 µM | TGI [17]: > 100 µM | TGI [18]: 67.7 µM | TGI [19]: > 100 µM | TGI [20]: > 100 µM | TGI [21]: > 100 µM | TGI [22]: > 100 µM | TGI [23]: > 100 µM | TGI [24]: > 100 µM | TGI [25]: > 100 µM | TGI [26]: 66.2 µM | TGI [27]: > 100 µM | TGI [28]: > 100 µM | TGI [29]: > 100 µM | TGI [30]: > 100 µM | TGI [31]: > 100 µM | TGI [32]: 75.1 µM | TGI [33]: > 100 µM | TGI [34]: > 100 µM | TGI [35]: > 100 µM | TGI [36]: > 100 µM | TGI [37]: > 100 µM | TGI [38]: > 100 µM | TGI [39]: > 100 µM | TGI [40]: > 100 µM | TGI [41]: 64.2 µM | TGI [42]: > 100 µM | TGI [43]: > 100 µM | TGI [44]: 80.1 µM | TGI [45]: 83.6 µM | TGI [46]: 55.1 µM | TGI [47]: > 100 µM | TGI [48]: > 100 µM | TGI [49]: > 100 µM | TGI [50]: > 100 µM | TGI [51]: > 100 µM | TGI [52]: > 100 µM | TGI [53]: > 100 µM | TGI [54]: 80 µM

C[N+]12C=CC=C1C(N1CCCC1)c1scc(-c3ccc(F)cc3)c12 (configuration not stated)
TGI [1]: 45.3 µM | TGI [2]: > 100 µM | TGI [3]: 88.6 µM | TGI [4]: > 100 µM | TGI [5]: 51.3 µM | TGI [6]: > 100 µM | TGI [9]: 88 µM | TGI [10]: > 100 µM | TGI [11]: > 100 µM | TGI [12]: 36.2 µM | TGI [13]: > 100 µM | TGI [15]: > 100 µM | TGI [16]: 78.1 µM | TGI [17]: > 100 µM | TGI [55]: > 100 µM | TGI [18]: > 100 µM | TGI [20]: 31.9 µM | TGI [21]: 49 µM | TGI [22]: > 100 µM | TGI [23]: 26.5 µM | TGI [26]: > 100 µM | TGI [27]: > 100 µM | TGI [56]: > 100 µM | TGI [28]: > 100 µM | TGI [30]: > 100 µM | TGI [31]: > 100 µM | TGI [32]: > 100 µM | TGI [33]: > 100 µM | TGI [34]: > 100 µM | TGI [35]: > 100 µM | TGI [57]: > 100 µM | TGI [36]: > 100 µM | TGI [37]: > 100 µM | TGI [38]: > 100 µM | TGI [40]: > 100 µM | TGI [42]: > 100 µM | TGI [43]: > 100 µM | TGI [44]: > 100 µM | TGI [45]: > 100 µM | TGI [46]: > 100 µM | TGI [47]: 4.4 µM | TGI [48]: > 100 µM | TGI [49]: > 100 µM | TGI [58]: 36.1 µM | TGI [50]: > 100 µM | TGI [51]: 80.5 µM | TGI [52]: > 100 µM | TGI [59]: > 100 µM
